Test results published in patent US20180119156A1, “[…] GENE EXPRESSION” (priority 2015, published 2018).

What was measured:
[1] = system: E. coli DH10B-T7His-Theo4; format: cell-based, Escherichia coli
Description: The performance of the cascade was measured using GFPuv expression (FIG. 12). Specifically, the theophylline dependency of the cascade at 0.8 mg/L rhamnose was measured. […] Additionally, expression of GFPuv over a wide range of rhamnose and theophylline concentrations was determined.
E. coli DH10B-T7His-Theo4 was grown overnight at 37° C. in LB medium containing kanamycin (50 mg/L). A 96 well 2 ml culture plate (Greiner) was filled with a concentrate of theophylline and L-rhamnose. […] Culture plates were incubated at 37° C. overnight under continuous shaking. The bacteria were centrifuged for 10 minutes at 4700 rpm in a Sorval Legend centrifuge. The supernatant was cleared and the cell pellet was resuspended in 500 μL 50 mM Tris-HCl pH 7.5. After resuspension, the plates were incubated at 37° C. for 1 hour to allow maturation of the GFPuv. 100 μL of suspension was pipetted into a 98 well black plate with clear bottom (Perkin Elmer) and measured with a Synergy MX plate reader. The cell density was measured by scattering at 600 nm and the fluorescence was measured at an excitation wavelength of 385 nm with a width of 20 nm and an emission wavelength of 508 nm with 20 nm width with a gain of 50. The background fluorescence and background scattering were subtracted and the fluorescence was divided by the scattering at 600 nm. The background fluorescence of bacteria without either GFPuv or T7His polymerase was negligible, but the fluorescence caused by other components than GFPuv in the bacteria was still subtracted.
The theophylline dependency of the cascade in response to differing concentrations of rhamnose was measured. E. coli DH10B-T7His-Theo4 diluted from an overnight culture were grown overnight in a 2 mL culture plate containing a variable amount of L-rhamnose and theophylline. The medium was cleared and the bacteria were resuspended in 50 mM Tris-HCl pH 7.5. The fluorescence was measured at an excitation wavelength of 385 nm and an emission wavelength of 508 nm. The cell density was measured by scattering at 600 nm.

[2] = system: thyA-deficient E. coli DH10B strain
Description: A comparison of a single intron construct with a construct of the present invention featuring a tandem self-splicing intron was made (FIG. 9). Growth (OD600) was plotted against time (minutes) in the presence (1 mM) and absence (0 mM) of theophylline for the construct designed by Thompson et al. (Thompson et al. 2002 BMC Biotechnol. 2: 21) utilising one theophylline-dependent intron in thyA, in a thyA-deficient E. coli DH10B strain (FIG. 9A). […] Growth was measured in the same way for a construct containing an E. coli thyA gene interrupted by two theophylline-dependent introns, which was transformed into a thyA-deficient E. coli DH10B strain. The overnight growth was plotted against the theophylline concentration in the medium (FIG. 9B).

[3] = system: thyA knockout strain of E. coli; conditions: single theophylline-dependent intron, background subtracted; cited from earlier work

Structure (SMILES) | background expression, % of the maximum expression ([1]; fully induced with rhamnose, theophylline absent, one intron cascade) | concentration above which theophylline became slightly toxic ([2]; overnight growth, E. coli DH10B thyA-deficient) | Kd ([2]; read-out: apparent kd value, Michaelis-Menten-like profile of overnight growth vs theophylline concentration, two introns in thyA) [µM] | theophylline-induced growth, % of the parental intron [3] | fold-change in GFPuv fluorescence caused by theophylline ([1]; at any L-rhamnose concentration) | signal of fully induced system relative to strong TacI promoter (pSC034f) ([1]; fully induced with rhamnose and theophylline)
C[C@H](O)[C@H](O)[C@@H](O)[C@@H](O)C=O [rhamnose, L-rhamnose] | about 7.5% | – | – | – | – | –
Cn1c(=O)c2[nH]cnc2n(C)c1=O [theophylline] | – | Above 1 mM | 100 to 200 | approximately 40% | around 15 times | 5-6 times
